Here are results for 38 compounds from ChEMBL document CHEMBL4371080, “Multiple weak intercalation as a strategy for the inhibition of polymerases” (Bioorg Med Chem Lett, 2019).

Experiment [1] concerns the target Human immunodeficiency virus type 1 reverse transcriptase (Human immunodeficiency virus 1) (UniProt Q72547). Put plainly: Inhibition of HIV1 reverse transcriptase assessed as reduction in [3H]dTTP incorporation by measuring proportional residual activity ratio at 20 uM using poly(rA)/oligo(dT) as template/primer after 30 mins by scintillation counting method relative to control.

Experiment [2] shares this target. Nature of the experiment: Inhibition of HIV1 reverse transcriptase assessed as reduction in [3H]dTTP incorporation by measuring proportional residual activity ratio at 300 uM using poly(rA)/oligo(dT) as template/primer after 30 mins by scintillation counting method.

Where a SMILES comes first, the peptide text is derived from it. Bridges are numbered along the chain shown (N, C = ends). [ ]: non-standard residue; d: D form. The star is where a group is joined. ξ: configuration not given here. Quinoxaline2carbonyl = O=C(c1cnc2ccccc2n1)*; ξDap = NCC(N)C(=O)O

As to `NCC1NC(=O)C[C@@H](C(N)=O)NC(=O)CNC(=O)CNC(=O)C(CNC(=O)c2cnc3ccccc3n2)NC(=O)C(CNC(=O)c2cnc3ccccc3n2)NC(=O)CNC1=O` (stereo partly drawn) ([ξDap]G[ξDap](Quinoxaline2carbonyl)[ξDap](Quinoxaline2carbonyl)GGD-NH2; lactam N-7), the Ratio in experiment [1] amounted to 0.38. Same read-out and setting: to `NCC1NC(=O)C[C@@H](C(N)=O)NC(=O)CNC(=O)C(CNC(=O)c2cnc3ccccc3n2)NC(=O)CNC(=O)CNC(=O)C(CNC(=O)c2cnc3ccccc3n2)NC1=O` (stereo partly drawn) ([ξDap][ξDap](Quinoxaline2carbonyl)GG[ξDap](Quinoxaline2carbonyl)GD-NH2; lactam N-7) belongs 0.02; to `NCC1NC(=O)C[C@@H](C(N)=O)NC(=O)CNC(=O)CNC(=O)CNC(=O)C(CNC(=O)c2cnc3ccccc3n2)NC(=O)C(CNC(=O)c2cnc3ccccc3n2)NC1=O` (stereo partly drawn) ([ξDap][ξDap](Quinoxaline2carbonyl)[ξDap](Quinoxaline2carbonyl)GGGD-NH2; lactam N-7), 0.3; to `NCC1NC(=O)C[C@@H](C(N)=O)NC(=O)C(CNC(=O)c2cnc3ccccc3n2)NC(=O)CNC(=O)CNC(=O)C(CNC(=O)c2cnc3ccccc3n2)NC(=O)C(CNC(=O)c2cnc3ccccc3n2)NC1=O` (stereo partly drawn) ([ξDap][ξDap](Quinoxaline2carbonyl)[ξDap](Quinoxaline2carbonyl)GG[ξDap](Quinoxaline2carbonyl)D-NH2; lactam N-7), 0.06. For the compound `NC(=O)[C@@H](Cc1c[nH]c2ccccc12)NC(=O)CCCNC(=O)[C@H](N)Cc1c[nH]c2ccccc12`, the Ratio in experiment [2] was 0.36. With `NC(=O)C[C@H](NC(=O)[C@@H](N)Cc1c[nH]c2ccccc12)C(=O)N[C@@H](Cc1c[nH]c2ccccc12)C(N)=O`, the Ratio in experiment [2] worked out at 0.62. Take `NC(=O)[C@@H](Cc1c[nH]c2ccccc12)NC(=O)[C@@H](N)Cc1c[nH]c2ccccc12`: the Ratio in experiment [2] came out at 0.45. Consider `NCC1NC(=O)C[C@@H](C(N)=O)NC(=O)C(CNC(=O)c2cnc3ccccc3n2)NC(=O)CNC(=O)C(CNC(=O)c2cnc3ccccc3n2)NC(=O)C(CNC(=O)c2cnc3ccccc3n2)NC(=O)CNC1=O` (stereo partly drawn) ([ξDap]G[ξDap](Quinoxaline2carbonyl)[ξDap](Quinoxaline2carbonyl)G[ξDap](Quinoxaline2carbonyl)D-NH2; lactam N-7), for which, in experiment [1], the Ratio is 0.14. As to `NC(=O)C[C@H](NC(=O)[C@@H](N)Cc1c[nH]c2ccccc12)C(=O)N[C@H](Cc1c[nH]c2ccccc12)C(N)=O`, the Ratio in experiment [2] came out at 0.44. Regarding `NC(=O)C[C@@H](NC(=O)[C@@H](N)Cc1c[nH]c2ccccc12)C(=O)N[C@@H](Cc1c[nH]c2ccccc12)C(N)=O`, the Ratio in experiment [2] stood at 0.6. As to `NCC1NC(=O)C[C@@H](C(N)=O)NC(=O)C(CNC(=O)c2cnc3ccccc3n2)NC(=O)C(CNC(=O)c2cnc3ccccc3n2)NC(=O)CNC(=O)C(CNC(=O)c2cnc3ccccc3n2)NC(=O)CNC1=O` (stereo partly drawn) ([ξDap]G[ξDap](Quinoxaline2carbonyl)G[ξDap](Quinoxaline2carbonyl)[ξDap](Quinoxaline2carbonyl)D-NH2; lactam N-7), the Ratio in experiment [1] stood at 0.15. Consider `NC(=O)[C@@H](Cc1c[nH]c2ccccc12)NC(=O)[C@H](N)Cc1c[nH]c2ccccc12`, for which the Ratio in experiment [2] was 0.7.

With `NC(=O)C[C@H](NC(=O)[C@H](N)Cc1c[nH]c2ccccc12)C(=O)N[C@H](Cc1c[nH]c2ccccc12)C(N)=O`, the Ratio in experiment [2] was 0.69.

With `NCC1NC(=O)C[C@@H](C(N)=O)NC(=O)C(CNC(=O)c2cnc3ccccc3n2)NC(=O)C(CNC(=O)c2cnc3ccccc3n2)NC(=O)CNC(=O)CNC(=O)C(CNC(=O)c2cnc3ccccc3n2)NC1=O` (stereo partly drawn) ([ξDap][ξDap](Quinoxaline2carbonyl)GG[ξDap](Quinoxaline2carbonyl)[ξDap](Quinoxaline2carbonyl)D-NH2; lactam N-7), the Ratio in experiment [1] is 0.13. Consider `NCC1NC(=O)C[C@@H](C(N)=O)NC(=O)CNC(=O)C(CNC(=O)c2cnc3ccccc3n2)NC(=O)C(CNC(=O)c2cnc3ccccc3n2)NC(=O)CNC(=O)CNC1=O` (stereo partly drawn) ([ξDap]GG[ξDap](Quinoxaline2carbonyl)[ξDap](Quinoxaline2carbonyl)GD-NH2; lactam N-7), for which, in experiment [1], the Ratio amounted to 0.57.

`NC(=O)C[C@@H](NC(=O)[C@@H](N)Cc1c[nH]c2ccccc12)C(=O)N[C@H](Cc1c[nH]c2ccccc12)C(N)=O`: in experiment [2], the Ratio turned out to be 0.35. On to `NCC1NC(=O)C[C@@H](C(N)=O)NC(=O)C(CNC(=O)c2cnc3ccccc3n2)NC(=O)CNC(=O)C(CNC(=O)c2cnc3ccccc3n2)NC(=O)CNC(=O)CNC1=O` (stereo partly drawn) ([ξDap]GG[ξDap](Quinoxaline2carbonyl)G[ξDap](Quinoxaline2carbonyl)D-NH2; lactam N-7), for which, in experiment [1], the Ratio was 0.18. On the same count and under the same terms, to `NCC1NC(=O)C[C@@H](C(N)=O)NC(=O)CNC(=O)C(CNC(=O)c2cnc3ccccc3n2)NC(=O)C(CNC(=O)c2cnc3ccccc3n2)NC(=O)CNC(=O)C(CNC(=O)c2cnc3ccccc3n2)NC1=O` (stereo partly drawn) ([ξDap][ξDap](Quinoxaline2carbonyl)G[ξDap](Quinoxaline2carbonyl)[ξDap](Quinoxaline2carbonyl)GD-NH2; lactam N-7) belongs 0.09.

Turning to `NC(=O)[C@H](Cc1c[nH]c2ccccc12)NC(=O)CNC(=O)[C@H](N)Cc1c[nH]c2ccccc12`, in experiment [2], the Ratio worked out at 0.63. `NC(=O)C[C@@H](NC(=O)[C@H](N)Cc1c[nH]c2ccccc12)C(=O)N[C@H](Cc1c[nH]c2ccccc12)C(N)=O`: the Ratio in experiment [2] was 0.47. `NCC1NC(=O)C[C@@H](C(N)=O)NC(=O)CNC(=O)CNC(=O)C(CNC(=O)c2cnc3ccccc3n2)NC(=O)CNC(=O)CNC1=O` (stereo partly drawn) ([ξDap]GG[ξDap](Quinoxaline2carbonyl)GGD-NH2; lactam N-7): the Ratio in experiment [1] is 0.66. With `NC(=O)C[C@@H](NC(=O)[C@H](N)Cc1c[nH]c2ccccc12)C(=O)N[C@@H](Cc1c[nH]c2ccccc12)C(N)=O`, the Ratio in experiment [2] was 0.34. On the same count and under the same terms, to `NC(=O)[C@@H](Cc1c[nH]c2ccccc12)NC(=O)CCNC(=O)[C@@H](N)Cc1c[nH]c2ccccc12` belongs 0.46. As for `NCC1NC(=O)C[C@@H](C(N)=O)NC(=O)CNC(=O)C(CNC(=O)c2cnc3ccccc3n2)NC(=O)CNC(=O)C(CNC(=O)c2cnc3ccccc3n2)NC(=O)CNC1=O` (stereo partly drawn) ([ξDap]G[ξDap](Quinoxaline2carbonyl)G[ξDap](Quinoxaline2carbonyl)GD-NH2; lactam N-7), the Ratio in experiment [1] was found to be 0.09. Same read-out and setting: to `NCC1NC(=O)C[C@@H](C(N)=O)NC(=O)C(CNC(=O)c2cnc3ccccc3n2)NC(=O)C(CNC(=O)c2cnc3ccccc3n2)NC(=O)CNC(=O)CNC(=O)CNC1=O` (stereo partly drawn) ([ξDap]GGG[ξDap](Quinoxaline2carbonyl)[ξDap](Quinoxaline2carbonyl)D-NH2; lactam N-7) belongs 0.71. On to `NC(=O)[C@H](Cc1c[nH]c2ccccc12)NC(=O)CNC(=O)[C@@H](N)Cc1c[nH]c2ccccc12`, for which the Ratio in experiment [2] was determined as 0.4. Still for that read-out and setting: to `NC(=O)[C@H](Cc1c[nH]c2ccccc12)NC(=O)[C@H](N)Cc1c[nH]c2ccccc12` belongs 0.61. Consider `NCC1NC(=O)C[C@@H](C(N)=O)NC(=O)CNC(=O)C(CNC(=O)c2cnc3ccccc3n2)NC(=O)C(CNC(=O)c2cnc3ccccc3n2)NC(=O)C(CNC(=O)c2cnc3ccccc3n2)NC(=O)CNC1=O` (stereo partly drawn) ([ξDap]G[ξDap](Quinoxaline2carbonyl)[ξDap](Quinoxaline2carbonyl)[ξDap](Quinoxaline2carbonyl)GD-NH2; lactam N-7), for which the Ratio in experiment [1] was 0.08.

`NCC1NC(=O)C[C@@H](C(N)=O)NC(=O)C(CNC(=O)c2cnc3ccccc3n2)NC(=O)C(CNC(=O)c2cnc3ccccc3n2)NC(=O)C(CNC(=O)c2cnc3ccccc3n2)NC(=O)CNC(=O)CNC1=O` (stereo partly drawn) ([ξDap]GG[ξDap](Quinoxaline2carbonyl)[ξDap](Quinoxaline2carbonyl)[ξDap](Quinoxaline2carbonyl)D-NH2; lactam N-7): the Ratio in experiment [1] is 0.16. In the case of `NCC1NC(=O)C[C@@H](C(N)=O)NC(=O)C(CNC(=O)c2cnc3ccccc3n2)NC(=O)CNC(=O)C(CNC(=O)c2cnc3ccccc3n2)NC(=O)CNC(=O)C(CNC(=O)c2cnc3ccccc3n2)NC1=O` (stereo partly drawn) ([ξDap][ξDap](Quinoxaline2carbonyl)G[ξDap](Quinoxaline2carbonyl)G[ξDap](Quinoxaline2carbonyl)D-NH2; lactam N-7), in experiment [1], the Ratio is 0.18.

For `NC(=O)[C@@H](Cc1c[nH]c2ccccc12)NC(=O)CNC(=O)[C@H](N)Cc1c[nH]c2ccccc12`, in experiment [2], the Ratio amounted to 0.76. Consider `NCC1NC(=O)C[C@@H](C(N)=O)NC(=O)CNC(=O)CNC(=O)C(CNC(=O)c2cnc3ccccc3n2)NC(=O)C(CNC(=O)c2cnc3ccccc3n2)NC(=O)C(CNC(=O)c2cnc3ccccc3n2)NC1=O` (stereo partly drawn) ([ξDap][ξDap](Quinoxaline2carbonyl)[ξDap](Quinoxaline2carbonyl)[ξDap](Quinoxaline2carbonyl)GGD-NH2; lactam N-7), for which the Ratio in experiment [1] turned out to be 0.04. Take `NCC1NC(=O)C[C@@H](C(N)=O)NC(=O)C(CNC(=O)c2cnc3ccccc3n2)NC(=O)CNC(=O)CNC(=O)C(CNC(=O)c2cnc3ccccc3n2)NC(=O)CNC1=O` (stereo partly drawn) ([ξDap]G[ξDap](Quinoxaline2carbonyl)GG[ξDap](Quinoxaline2carbonyl)D-NH2; lactam N-7): in experiment [1], the Ratio turned out to be 0.13. Consider `NC(=O)[C@H](Cc1c[nH]c2ccccc12)NC(=O)[C@@H](N)Cc1c[nH]c2ccccc12`, for which the Ratio in experiment [2] amounted to 0.65. `NCC1NC(=O)C[C@@H](C(N)=O)NC(=O)CNC(=O)CNC(=O)C(CNC(=O)c2cnc3ccccc3n2)NC(=O)CNC(=O)C(CNC(=O)c2cnc3ccccc3n2)NC1=O` (stereo partly drawn) ([ξDap][ξDap](Quinoxaline2carbonyl)G[ξDap](Quinoxaline2carbonyl)GGD-NH2; lactam N-7): the Ratio in experiment [1] was determined as 0.11. For the compound `NC(=O)[C@H](Cc1c[nH]c2ccccc12)NC(=O)CCCNC(=O)[C@H](N)Cc1c[nH]c2ccccc12`, the Ratio in experiment [2] turned out to be 0.43. The same measure, in the same setting: to `NC(=O)[C@@H](Cc1c[nH]c2ccccc12)NC(=O)CNC(=O)[C@@H](N)Cc1c[nH]c2ccccc12` belongs 0.74. Same read-out and setting: to `NC(=O)C[C@H](NC(=O)[C@H](N)Cc1c[nH]c2ccccc12)C(=O)N[C@@H](Cc1c[nH]c2ccccc12)C(N)=O` belongs 0.69.
